The record followed here is patent US11912679B2, “Aryl alkynamide derivatives” (Astellas Pharma, Inc., priority 2022, dated 2024).

Test [1] concerns IRF pathway of THP-1. Nature of the test: Test on the activity of IRF pathway of THP-1 (THP1-Dual reporter cells stimulated with 2'3'-cGAMP). Particulars: Homo sapiens, PMA-treated, 2'3'-cGAMP 5 ug/mL, QUANTI-Luc readout, read-out: IC50 of inhibition of the activity of IRF pathway. The class given is cell-based. The protocol:
0.3 uM of PMA (phorbol myristate acetate, SIGMA, P1585) was added to THP1-Dual™ cells (NF-κB-SEAP IRF-Luc Reporter Monocytes, Invivogen, thpd-nfis), and the cells were cultured at 37° C. for 1 day in RPMI1640 with 10% Fetal Bovine Serum (FBS). A compound with a known concentration was added, and the cells were incubated at room temperature for 1 hour. Mammalian (non-canonical) CDN, cyclic [G(2′,5′)pA(3′,5′)p] (2′3′-cGAMP, Invivogen, tlrl-nacga23) was added to a final concentration of 5 ug/mL, and the cells were cultured at 37° C. On the following day, QUANTI-Luc™ (Secreted luciferase detection medium, Invivogen, rep-qlc) was added to the culture solution and the activity of IRF pathway was measured using a microplate reader. The inhibition ratio at each concentration was determined, where the activity of IRF pathway with no addition of the test compound or 2′3′-cGAMP was defined as 100% inhibition and the activity of IRF pathway with no addition of the test compound and with addition of 2′3′-cGAMP was defined as 0% inhibition. The IC50 value was calculated by sigmoid […] model non-linear regression analysis.

Test [2] concerns IFNβ production. Nature of the test: Test on IFNβ production in mice plasma (DMXAA-induced). As to conditions: male C57BL/6J mice, 1 mg/kg oral, DMXAA 20 mg/kg i.p. after 1 hour, plasma 4 hours later. It counts as in vivo. The method, then:
Male C57BL/6J mice (8-12-weeks-old) were administered orally either vehicle or 1 mg/kg of test compounds. After 1 hour, 5,6-Dimethylxanthenone-4-acetic acid (DMXAA) (BLD Pharmatech Ltd, BD126695) was administered intraperitoneally at a dose of 20 mg/kg. Four hours later, the mice were euthanized, and the plasma was collected. Plasma concentration of IFNβ was measured by an enzyme-linked immunosorbent assay method using an AlphaLISA Mouse IFNβ Detection Kit (Parkin Elmer, AL586C), and the inhibition ratio to the vehicle administration group was calculated.

As usually defined, the IC50 is the concentration needed to halve the response being measured. For the molecule `O=C(C#Cc1ccc(-c2ccccc2)c(C(F)(F)F)c1)NC[C@@H](O)CO` [Example 36, N-[(2R)-2,3-dihydroxypropyl]-3-[2-(trifluoromethyl)[1,1′-biphenyl]-4-yl]prop-2-ynamide], the IC50 in test [1] stood at 615 nM. The “Inh (%): inhibition ratio of the production of IFNβ to the vehicle administration group” value (shortened to “Inh (%): inhibition ratio”) in test [2] amounted to 85%.

On to `O=C(C#Cc1ccc(-c2ccccc2)c(C(F)(F)F)c1)N1CC(CO)(CO)C1` [Example 46, 1-[3,3-bis(hydroxymethyl)azetidin-1-yl]-3-[2-(trifluoromethyl)[1,1′-biphenyl]-4-yl]prop-2-yn-1-one], for which, in test [1], the IC50 is 150 nM. Besides, the “Inh (%): inhibition ratio” value in test [2] was found to be 69%.

`O=C(C#Cc1ccc(-c2ccccc2)c(C(F)(F)F)c1)N1C[C@H](O)[C@@H](O)C1` [Example 44, 1-[(3S,4S)-3,4-dihydroxypyrrolidin-1-yl]-3-[2-(trifluoromethyl)[1,1′-biphenyl]-4-yl]prop-2-yn-1-one]: the IC50 in test [1] stood at 174 nM. For the same molecule, the “Inh (%): inhibition ratio” value in test [2] is given as 82%.

In the case of `O=C(C#Cc1ccc(-c2ccccc2)c(C(F)(F)F)c1)N1C[C@@H](O)[C@H](O)C1` [Example 43, 1-[(3R,4R)-3,4-dihydroxypyrrolidin-1-yl]-3-[2-(trifluoromethyl)[1,1′-biphenyl]-4-yl]prop-2-yn-1-one], the IC50 in test [1] is 201 nM. For the same molecule, in test [2], the “Inh (%): inhibition ratio” value worked out at 87%.

Regarding `NC(=O)[C@@H]1CCCN1C(=O)C#Cc1ccc(-c2ccccc2)c(C(F)(F)F)c1` [Example 24], the IC50 in test [1] is 121 nM.

Take `O=C(C#Cc1ccc(-c2ccccc2)c(OC(F)F)c1)NC[C@H](O)CO` [Example 113]: the half-inhibitory concentration (IC50) in test [1] amounted to 698 nM.

On to `CS(=O)(=O)NCCCNC(=O)C#Cc1ccc(-c2ccccc2)c(C(F)(F)F)c1` [Example 32], for which the IC50 in test [1] worked out at 178 nM.

As to `O=C(C#Cc1ccc(-c2cccc(OC(F)F)c2)c(C(F)(F)F)c1)N[C@H]1COC[C@@H]1O` [Example 57], in test [1], the IC50 is 381 nM.

Turning to `N=S1(=O)CCN(C(=O)C#Cc2cnc(-c3ccc(Cl)cc3C(F)(F)F)nc2)CC1` [Example 132], in test [1], the IC50 was determined as 179 nM.

With `O=C(C#Cc1ccc(-c2ccccc2)c(C(F)(F)F)c1)N(CCO)c1ccccc1` [Example 48], the IC50 in test [1] was found to be 91 nM.

As for `O=C(C#Cc1ccc(-c2ccccc2OC(F)(F)F)c(C(F)(F)F)c1)N1C[C@@H](O)[C@H](O)C1` [Example 66], the IC50 in test [1] was determined as 48 nM.

For the molecule `NC(=O)[C@H]1CCCN1C(=O)C#Cc1ccc(-c2ccccc2)c(C(F)(F)F)c1` [Example 23], the IC50 in test [1] was determined as 91 nM.

Take `NC(=O)[C@@H]1C[C@H](O)CN1C(=O)C#Cc1ccc(-c2ccccc2)c(C(F)(F)F)c1` [Example 28]: the IC50 in test [1] was 95 nM.

On to `O=C(C#Cc1ccc(-c2cccc(OC(F)F)c2)c(C(F)(F)F)c1)N[C@@H]1COC[C@@H]1O` [Example 81], for which the IC50 in test [1] was determined as 37 nM.

For `O=C(C#Cc1ccc(-c2ccccc2)c(C(F)(F)F)c1)NC[C@H](O)CO` [Example 35, N-[(2S)-2,3-dihydroxypropyl]-3-[2-(trifluoromethyl)[1,1′-biphenyl]-4-yl]prop-2-ynamide], in test [1], the IC50 is 466 nM. Besides, the “Inh (%): inhibition ratio” value in test [2] is given as 83%.

As for `O=C(C#Cc1ccc(-c2ccccc2OC(F)(F)F)c(C(F)(F)F)c1)N[C@H]1COC[C@H]1O` [Example 73], in test [1], the IC50 came to 99 nM.

For `CN1CCN(C(=O)C#Cc2cnn(-c3ccc(C(F)(F)F)cc3)c2)CC1` [Example 95, 1-(4-methylpiperazin-1-yl)-3-{1-[4-(trifluoromethyl)phenyl]-1H-pyrazol-4-yl}prop-2-yn-1-one], the IC50 in test [1] came out at 1440 nM.

In the case of `O=C(C#Cc1ccc(-c2ccccc2OC(F)(F)F)c(C(F)(F)F)c1)N1C[C@@H](O)[C@@H](O)C1` [Example 71], the IC50 in test [1] was 43 nM.
